Values quoted from earlier work, collected in US10363219B2, “Method of preparing albumin nanoparticle carrier wrapping taxane drug” (Zhejiang Academy of Forestry, priority 2016, dated 2019).

Settings: relative to paclitaxel

Compound: CC(=O)O[C@@]12CO[C@@H]1C[C@H](O)[C@@]1(C)C(=O)[C@H](O)C3=C(C)[C@@H](OC(=O)[C@H](O)[C@@H](NC(=O)OC(C)(C)C)c4ccccc4)C[C@@](O)([C@@H](OC(=O)c4ccccc4)[C@H]21)C3(C)C [Docetaxel]
- cytotoxic effect, times of that of paclitaxel: 1.3-12 times
